Positions count from the first letter of the chain named.
Experiments:
KV4.3/KChIP3 [1] = target: T1, KV4.3/KChIP3 (Homo sapiens, UniProt Q9Y2W7, Y130A); test: whole-cell patch clamp, per cent block; assay type: cell-based; conditions: read-out: % inhibition at 30 nM
T1 sequence (Q9Y2W7 1-256 Y130A): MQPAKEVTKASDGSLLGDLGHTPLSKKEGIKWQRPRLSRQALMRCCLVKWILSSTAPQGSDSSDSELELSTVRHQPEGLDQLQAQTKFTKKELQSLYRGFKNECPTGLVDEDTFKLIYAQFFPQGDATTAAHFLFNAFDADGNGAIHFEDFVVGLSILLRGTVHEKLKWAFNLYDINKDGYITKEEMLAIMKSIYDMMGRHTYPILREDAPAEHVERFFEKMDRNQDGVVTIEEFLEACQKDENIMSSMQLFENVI
T1 sequence (Q9UK17 1-655 partner): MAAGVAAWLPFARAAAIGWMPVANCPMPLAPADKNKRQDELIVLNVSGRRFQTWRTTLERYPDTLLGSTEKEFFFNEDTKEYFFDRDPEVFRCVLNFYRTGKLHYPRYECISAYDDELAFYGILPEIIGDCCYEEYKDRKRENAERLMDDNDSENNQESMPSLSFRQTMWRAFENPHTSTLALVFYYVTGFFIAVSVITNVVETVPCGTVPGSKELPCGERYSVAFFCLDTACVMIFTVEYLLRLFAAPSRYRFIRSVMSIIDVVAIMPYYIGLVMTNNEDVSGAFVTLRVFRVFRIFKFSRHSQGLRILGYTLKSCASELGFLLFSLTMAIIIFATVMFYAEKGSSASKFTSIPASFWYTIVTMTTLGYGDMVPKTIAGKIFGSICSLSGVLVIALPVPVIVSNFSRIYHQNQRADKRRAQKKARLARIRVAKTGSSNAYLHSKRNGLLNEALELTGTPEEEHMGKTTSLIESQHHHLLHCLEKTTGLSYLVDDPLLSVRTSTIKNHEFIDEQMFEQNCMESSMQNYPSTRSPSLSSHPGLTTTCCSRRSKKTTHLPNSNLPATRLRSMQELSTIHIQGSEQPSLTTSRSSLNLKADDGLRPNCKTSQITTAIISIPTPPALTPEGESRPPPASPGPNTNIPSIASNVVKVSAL

KV4.3/KChIP3 [2] = target: T2, KV4.3/KChIP3 (Homo sapiens, UniProt Q9Y2W7, Y118A); test: whole-cell patch clamp, per cent block; assay type: cell-based; conditions: read-out: % inhibition at 30 nM
T2 sequence (Q9Y2W7 1-256 Y118A): T1 sequence (Q9Y2W7 1-256 Y130A) with Y118A, A130Y
T2 sequence (Q9UK17 1-655 partner): T1 sequence (Q9UK17 1-655 partner)

KV4.3/KChIP3 [3] = target: T3, KV4.3/KChIP3 (Homo sapiens, UniProt Q9Y2W7, K166A); test: whole-cell patch clamp, per cent block; assay type: cell-based; conditions: read-out: % inhibition at 30 nM
T3 sequence (Q9Y2W7 1-256 K166A): T1 sequence (Q9Y2W7 1-256 Y130A) with A130Y, K166A
T3 sequence (Q9UK17 1-655 partner): T1 sequence (Q9UK17 1-655 partner)

KChIP3 = target: T4, KChIP3 (Homo sapiens, UniProt Q9Y2W7); test: tryptophan fluorescence quenching; assay type: binding
T4 sequence (Q9Y2W7 1-256): T1 sequence (Q9Y2W7 1-256 Y130A) with A130Y

KV4.3/KChIP3 [4] = target: T5, KV4.3/KChIP3 (Homo sapiens, UniProt Q9Y2W7); test: whole-cell patch clamp, peak current at +[…] mV; assay type: cell-based
T5 sequence (Q9Y2W7 1-256): T1 sequence (Q9Y2W7 1-256 Y130A) with A130Y
T5 sequence (Q9UK17 1-655 partner): T1 sequence (Q9UK17 1-655 partner)

KV4.3/KChIP3 [5] = target: T5, KV4.3/KChIP3; test: whole-cell patch clamp, per cent block; assay type: cell-based; conditions: read-out: % inhibition at 30 nM

inhibition at 0.03 µM (KV4.3/KChIP3 [1]): 9.7 ± 2.5% | inhibition at 0.03 µM (KV4.3/KChIP3 [2]): 17 ± 3.6% | inhibition at 0.03 µM (KV4.3/KChIP3 [3]): 9 ± 2.5% | Kd (KChIP3): 230 ± 20 nM | IC50 (KV4.3/KChIP3 [4]): 30 nM | inhibition at 0.03 µM (KV4.3/KChIP3 [5]): 23.2 ± 2.7%
SMILES: O=C(Cc1cccc(-c2ccccc2)c1)Nc1cc(Cl)ccc1C(=O)O [compound 1, 2-(2-([1,1’-biphenyl]-3-yl)acetamido)-4-chlorobenzoic acid]

— article doi:10.1101/2025.05.29.656781v1 (biorxiv, 2025)
